The data set relates to CCRIS mutagenicity, Ames/micronucleus/aberration tests. Nature of the data set: CCRIS mutagenicity studies.
[1] abbreviates: Test System: AMES SALMONELLA TYPHIMURIUM, Strain/Indicator: TA98, Metabolic Activation: NONE, Method: PREINCUBATION
The mark [2] stands for this setting: Test System: AMES SALMONELLA TYPHIMURIUM, Strain/Indicator: TA98, Metabolic Activation: NONE, Method: STANDARD PLATE.

The source made the active and inactive calls. No rule for the calls is given here.

Turning to `CC(C)(C)c1ccc(O)c(O)c1`, the mutagenic call is, setting by setting: (Test System: AMES SALMONELLA TYPHIMURIUM, Strain/Indicator: TA97, Metabolic Activation: HAMSTER LIVER S-9, AROCLOR 1254 (10% OR 30%), Method: PREINCUBATION) “inactive; negative”; (Test System: AMES SALMONELLA TYPHIMURIUM, Strain/Indicator: TA97, Metabolic Activation: NONE, Method: PREINCUBATION) “inactive; negative”; (Test System: AMES SALMONELLA TYPHIMURIUM, Strain/Indicator: TA97, Metabolic Activation: RAT LIVER S-9, AROCLOR 1254 (10% OR 30%), Method: PREINCUBATION) “inactive; negative”; (Test System: AMES SALMONELLA TYPHIMURIUM, Strain/Indicator: TA98, Metabolic Activation: HAMSTER LIVER S-9, AROCLOR 1254 (10% OR 30%), Method: PREINCUBATION) “inactive; negative”; under setting [1], “inactive; negative”; (Test System: AMES SALMONELLA TYPHIMURIUM, Strain/Indicator: TA98, Metabolic Activation: RAT LIVER S-9, AROCLOR 1254 (10% OR 30%), Method: PREINCUBATION) “inactive; negative”. The mutagenic call (Test System: AMES SALMONELLA TYPHIMURIUM, Strain/Indicator: TA100, Metabolic Activation: HAMSTER LIVER S-9, AROCLOR 1254 (10% OR 30%), Method: PREINCUBATION) was “inactive; negative”; the mutagenic call (Test System: AMES SALMONELLA TYPHIMURIUM, Strain/Indicator: TA100, Metabolic Activation: NONE, Method: PREINCUBATION) is “inactive; negative”; the mutagenic call (Test System: AMES SALMONELLA TYPHIMURIUM, Strain/Indicator: TA100, Metabolic Activation: RAT LIVER S-9, AROCLOR 1254 (10% OR 30%), Method: PREINCUBATION) was “inactive; negative”; the mutagenic call (Test System: AMES SALMONELLA TYPHIMURIUM, Strain/Indicator: TA102, Metabolic Activation: HAMSTER LIVER S-9, AROCLOR 1254 (10% OR 30%), Method: PREINCUBATION) is “inactive; negative”; the mutagenic call (Test System: AMES SALMONELLA TYPHIMURIUM, Strain/Indicator: TA102, Metabolic Activation: NONE, Method: PREINCUBATION) is “inactive; negative”; the mutagenic call (Test System: AMES SALMONELLA TYPHIMURIUM, Strain/Indicator: TA102, Metabolic Activation: RAT LIVER S-9, AROCLOR 1254 (10% OR 30%), Method: PREINCUBATION) was “inactive; negative”. Moreover, the mutagenic call (Test System: AMES SALMONELLA TYPHIMURIUM, Strain/Indicator: TA104, Metabolic Activation: HAMSTER LIVER S-9, AROCLOR 1254 (10% OR 30%), Method: PREINCUBATION) was “inactive; negative”; the mutagenic call (Test System: AMES SALMONELLA TYPHIMURIUM, Strain/Indicator: TA104, Metabolic Activation: NONE, Method: PREINCUBATION) is “inactive; negative”; the mutagenic call (Test System: AMES SALMONELLA TYPHIMURIUM, Strain/Indicator: TA104, Metabolic Activation: RAT LIVER S-9, AROCLOR 1254 (10% OR 30%), Method: PREINCUBATION) was “inactive; negative”; the mutagenic call (Test System: AMES SALMONELLA TYPHIMURIUM, Strain/Indicator: TA1535, Metabolic Activation: HAMSTER LIVER S-9, AROCLOR 1254 (10% OR 30%), Method: PREINCUBATION) is “inactive; negative”; the mutagenic call (Test System: AMES SALMONELLA TYPHIMURIUM, Strain/Indicator: TA1535, Metabolic Activation: NONE, Method: PREINCUBATION) is “inactive; negative”; the mutagenic call (Test System: AMES SALMONELLA TYPHIMURIUM, Strain/Indicator: TA1535, Metabolic Activation: RAT LIVER S-9, AROCLOR 1254 (10% OR 30%), Method: PREINCUBATION) is “inactive; negative”.

Take `O=[N+]([O-])c1cc2c3c(cccc3c1)-c1ccccc1-2`: the mutagenic call was “inactive; negative” (Test System: AMES SALMONELLA TYPHIMURIUM, Strain/Indicator: TA98(1,8-DNP6), Metabolic Activation: NONE, Method: STANDARD PLATE); “inactive; negative” (Test System: AMES SALMONELLA TYPHIMURIUM, Strain/Indicator: TA98(NR), Metabolic Activation: NONE, Method: STANDARD PLATE); “active; positive” under setting [2]; “inactive; negative” (Test System: AMES SALMONELLA TYPHIMURIUM, Strain/Indicator: TA7001, Metabolic Activation: NONE, Method: PREINCUBATION); “active; positive” (Test System: AMES SALMONELLA TYPHIMURIUM, Strain/Indicator: TA7002, Metabolic Activation: NONE, Method: PREINCUBATION); “inactive; negative” (Test System: AMES SALMONELLA TYPHIMURIUM, Strain/Indicator: TA7003, Metabolic Activation: NONE, Method: PREINCUBATION). The mutagenic call reads like this: (Test System: AMES SALMONELLA TYPHIMURIUM, Strain/Indicator: TA7004, Metabolic Activation: NONE, Method: PREINCUBATION) “active; positive”; (Test System: AMES SALMONELLA TYPHIMURIUM, Strain/Indicator: TA7005, Metabolic Activation: NONE, Method: PREINCUBATION) “active; positive”; (Test System: AMES SALMONELLA TYPHIMURIUM, Strain/Indicator: TA7006, Metabolic Activation: NONE, Method: PREINCUBATION) “active; positive”.

Take `CN(C)c1ccc(C(=C2C=CC(=[N+](C)C)C=C2)c2ccc(N(C)C)cc2)cc1`: the mutagenic call is, setting by setting: (Test System: AMES SALMONELLA TYPHIMURIUM, Strain/Indicator: TA97, Metabolic Activation: NONE, Method: STANDARD PLATE) “inactive; negative”; under setting [2], “inactive; negative”; (Test System: AMES SALMONELLA TYPHIMURIUM, Strain/Indicator: TA98, Metabolic Activation: RAT, LIVER, S-9, AROCLOR 1254, Method: STANDARD PLATE) “inactive; negative”; (Test System: AMES SALMONELLA TYPHIMURIUM, Strain/Indicator: TA100, Metabolic Activation: NONE, Method: STANDARD PLATE) “inactive; negative”; (Test System: AMES SALMONELLA TYPHIMURIUM, Strain/Indicator: TA100, Metabolic Activation: RAT, LIVER, S-9, AROCLOR 1254, Method: STANDARD PLATE) “inactive; negative”; (Test System: AMES SALMONELLA TYPHIMURIUM, Strain/Indicator: TA104, Metabolic Activation: NONE, Method: STANDARD PLATE) “inactive; negative”. Besides, the mutagenic call was “inactive; negative” (Test System: AMES SALMONELLA TYPHIMURIUM, Strain/Indicator: TA1535, Metabolic Activation: NONE, Method: STANDARD PLATE); “inactive; negative” (Test System: AMES SALMONELLA TYPHIMURIUM, Strain/Indicator: TA1535, Metabolic Activation: RAT, LIVER, S-9, AROCLOR 1254, Method: STANDARD PLATE); “inactive; negative” (Test System: CHINESE HAMSTER OVARY, Strain/Indicator: CHO-AS52 (GPT)/6-THIOGUANINE, Metabolic Activation: RAT, LIVER, S-9, AROCLOR 1254); “inactive; negative” (Test System: CHINESE HAMSTER OVARY, Strain/Indicator: CHO-K1-BH4 (HPRT)/6-THIOGUANINE, Metabolic Activation: NONE); “inactive; negative” (Test System: CHINESE HAMSTER OVARY, Strain/Indicator: CHO-K1-BH4 (HPRT)/6-THIOGUANINE, Metabolic Activation: RAT, LIVER, S-9, AROCLOR 1254); “active; positive” (Test System: E. COLI, Strain/Indicator: DG1669, Metabolic Activation: NONE, Method: STANDARD PLATE). Further, the mutagenic call (Test System: E. COLI, Strain/Indicator: DG1669, Metabolic Activation: RAT, LIVER, S-9, AROCLOR 1254, Method: STANDARD PLATE) is “active; positive”.

In the case of `COc1c(O)cc(Cl)cc1Cl`, the mutagenic call (Test System: CHINESE HAMSTER V-79, Strain/Indicator: V-79/6-THIOGUANINE, Metabolic Activation: NONE, Method: STANDARD PLATE) was “inactive; negative”.

On to `C[C@H](CCC(=O)O)[C@H]1CC[C@H]2[C@@H]3CCc4cc(O)ccc4[C@H]3CC[C@]12C`, for which the mutagenic call is “inactive; negative” under setting [1]; “inactive; negative” (Test System: AMES SALMONELLA TYPHIMURIUM, Strain/Indicator: TA98, Method: PREINCUBATION); “inactive; negative” (Test System: AMES SALMONELLA TYPHIMURIUM, Strain/Indicator: TA100, Method: PREINCUBATION).

(Values after PubChem BioAssay AID1259407 (Chemical Carcinogenesis Research Information System (CCRIS), 2018).)
